From US20260234129A1, “NOVEL IMIDAZOLE DERIVATIVE AND USE THEREOF” (PELEMED CO., LTD., priority 2023, published 2026)

How the values were obtained:
FLT3 = target: T1, FLT3 (Homo sapiens, UniProt P36888); experiment: ADP-Glo kinase assay FLT3 WT; type: biochemical; settings: recombinant FLT3, 120 minutes at room temperature, read-out: Enzyme (IC50) FLT3 WT
T1 construct: Recombinant proteins containing FLT3 and FLT3(D835Y) domains were purchased from Promega; purchased Promega V4064
T1 sequence (P36888 610-943 limits assumed): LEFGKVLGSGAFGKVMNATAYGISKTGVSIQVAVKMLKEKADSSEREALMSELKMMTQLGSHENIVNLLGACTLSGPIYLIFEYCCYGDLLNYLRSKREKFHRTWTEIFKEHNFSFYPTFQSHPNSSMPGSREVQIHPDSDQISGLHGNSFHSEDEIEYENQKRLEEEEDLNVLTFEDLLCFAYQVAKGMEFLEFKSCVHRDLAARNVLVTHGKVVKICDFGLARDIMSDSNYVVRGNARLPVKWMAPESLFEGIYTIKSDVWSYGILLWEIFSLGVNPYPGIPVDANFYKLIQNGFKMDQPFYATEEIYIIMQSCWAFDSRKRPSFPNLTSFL
Method: (§1) FLT3 activity inhibition was measured using the ADP-Glo kinase assay method (Promega, cat #V9101). The ADP-Glo kinase assay method is a luminescent ADP detection assay method that provides a homogeneous, high-throughput screening method for measuring kinase activity by quantifying the amount of ADP produced during the kinase reaction.
(§2) The assay was performed in two steps. First, after the kinase reaction, an equal volume of ADP-Glo™ reagent was added to terminate the kinase reaction and deplete any remaining ATP. Second, a kinase detection reagent was added to convert ADP to ATP, and simultaneously the newly synthesized ATP was measured via the luciferase/luciferin reaction. The light produced was measured using a luminometer.
Recombinant proteins containing FLT3 and FLT3(D835Y) domains were purchased from Promega (cat #V4064, cat #V4514), respectively. According to the manufacturer's instructions, the optimal enzyme, ATP, and substrate concentrations were optimized using the ADP-Glo™ kinase assay method (Promega, USA). […] Thereafter, ADP-Glo™ reagent (5 μl) was added and reacted for an additional 40 minutes at room temperature. Finally, the detection reagent (kinase detection reagent, 10 μl) was added, followed by reaction at room temperature for 30 minutes, and the phosphorylation of the substrate peptide was measured by detecting the luciferase signal (integration time 0.5~1 sec) using a SpectraMax ID5 reader (Molecular Devices LLC., San Jose, CA, USA).

FLT3(D835Y) = target: T2, FLT3(D835Y) (Homo sapiens, UniProt P36888, D835Y); experiment: ADP-Glo kinase assay FLT3 D835Y; type: biochemical; settings: recombinant FLT3(D835Y), 120 minutes at room temperature, read-out: Enzyme (IC50) FLT3 D835Y
T2 construct: Recombinant proteins containing FLT3 and FLT3(D835Y) domains were purchased from Promega; purchased Promega V4514
Method: as §1, §2
Recombinant proteins containing FLT3 and FLT3(D835Y) domains were purchased from Promega (cat #V4064, cat #V4514), respectively. According to the manufacturer's instructions, the optimal enzyme, ATP, and substrate concentrations were optimized using the ADP-Glo™ kinase assay method (Promega, USA). […] Finally, the detection reagent (kinase detection reagent, 10 μl) was added, followed by reaction at room temperature for 30 minutes, and the phosphorylation of the substrate peptide was measured by detecting the luciferase signal (integration time 0.5~1 sec) using a SpectraMax ID5 reader (Molecular Devices LLC., San Jose, CA, USA).

[1] = tested on: MV4-11 cells (FLT3-ITD-expressing AML cell line); experiment: Cell proliferation inhibition, Alamar Blue; type: cell-based, human; settings: Homo sapiens, MV4-11, 72 hours of compound treatment, read-out: Cellular (GI50) MV4-11
Method: (§3) The cell proliferation inhibition experiment on acute myeloid leukemia (AML) cell lines was performed using FL3-ITD-expressing AML cell line MV4-11, BaF3-ITD-FLT3 F691L cell line, and BaF3-ITD-FLT3 D835Y cell line to test FLT3 inhibitory activity. All cell lines were human-derived cell lines, and the sources and culture conditions for each cell line are as follows.
(§4) Cell viability was assessed by a resazurin redox-based assay using the Alamar Blue Assay kit (Invitrogen, USA). Specifically, MV4-11, BaF3-ITD-FLT3-F691L, and BaF3-ITD-FLT3-D835Y cells were plated in 384-well plates at 8,000 cells in 45 μL of medium. As a negative control, dimethyl sulfoxide (DMSO) was added together with the compound. After three days (72 hours) of compound treatment, 5 μL of the Alamar Blue kit reagent was added to each well of the 384-well plates, followed by incubation at 37° C. for 2 hours in a humidified CO2 incubator. After incubation, fluorescence intensity (Flu) was measured at 544 nm and 590 nm using a SpectraMax iD3 Multi Mode Microplate Reader (Molecular Devices, ID3-STD).

[2] = tested on: BaF3-ITD-FLT3 D835Y cell line; experiment: Cell proliferation inhibition, Alamar Blue; type: cell-based; settings: 72 hours of compound treatment, read-out: Cellular (GI50) BaF3-ITD-FLT3 D835Y
Method: as §3, §4

[3] = tested on: BaF3-ITD-FLT3 F691L cell line; experiment: Cell proliferation inhibition, Alamar Blue; type: cell-based; settings: 72 hours of compound treatment, read-out: Cellular (GI50) BaF3-ITD-FLT3 F691L
Method: as §3, §4

Structure (SMILES)	IC50 (FLT3) [nM]	IC50 (FLT3(D835Y)) [nM]	GI50 [1] [nM]	GI50 [2] [nM]	GI50 [3] [nM]
NCCCNC(=O)c1ccc2[nH]nc(-c3nc4ccc(C(=O)N5CCOCC5)cc4[nH]3)c2c1 [Example 21, N-(3-aminopropyl)-3-(6-(morpholine-4-carbonyl)-1H-benzo[d]imidazol-2-yl)-1H-indazole-5-carboxamide]	< 10	< 10	100 to 1000		
O=C(NCC1CC(F)(F)C1)c1ccc2[nH]nc(-c3nc4ccc(N5CCCC5)cc4[nH]3)c2c1 [Example 14, N-((3,3-difluorocyclobutyl)methyl)-3-(6-(pyrrolidin-1-yl)-1H-benzo[d]imidazol-2-yl)-1H-indazole-5-carboxamide]			10 to 100	10 to 100	100 to 1000
N[C@H]1CC[C@H](NC(=O)c2ccc3[nH]nc(-c4nc5ccc(N6CCCCC6)cc5[nH]4)c3c2)C1 [Example 31, N-((1S,3S)-3-aminocyclopentyl)-3-(6-(piperidin-1-yl)-1H-benzo[d]imidazol-2-yl)-1H-indazole-5-carboxamide]	< 10		< 10	< 10	10 to 100
